# In PubChem BioAssay (NCI):
#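 Each compound was tested at five concentrations against cells in 96-well plates for 48 hours. At the GI50, growth is halved. TGI denotes the concentration required for complete inhibition of growth.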
# Test system: SK-MEL-28 melanoma
# Assay: NCI-60 cell line screen, 48 h
row,SMILES,TGI
1,Oc1cccnc1CN1CCCCC1,> 100 µM

# Test system: IGROV1 ovarian
# Assay: NCI-60 cell line screen, 48 h
SMILES,TGI,GI50
Cc1nc(N)sc1C(=O)/C=C\c1ccc2c(c1)OCO2,> 100 µM,
COc1cc(C(C)O)c[n+](CCc2c[nH]c3ccccc23)c1 (configuration not stated),> 100 µM,
CN1CCN(CCCOc2ccc3nc(Nc4ccc(Cl)c(C(F)(F)F)c4)ccc3c2)CC1,30.1 µM,13.2 µM
CC1(C)SCc2nc3ncccc3n21,> 100 µM,
Cn1c(=O)c(C(c2ccc([N+](=O)[O-])cc2)c2c(O)c3ccccc3n(C)c2=O)cc2ccccc21 (configuration not stated),> 100 µM,
Cc1cn(C2CC(O)C(CO)O2)c(=O)n2nnnc12 (configuration not stated),> 100 µM,
COc1ccc(C(=O)C(C(=O)CCC(=O)Nc2cccc(Cl)c2)c2ccc(OC)cc2)cc1 (configuration not stated),> 100 µM,
CCOC(=O)C1=C(C)N(NC(=O)Nc2ccccc2)C(=O)C1=P(c1ccccc1)(c1ccccc1)c1ccccc1,> 100 µM,
Nn1c(=O)n(Cc2ccccc2)n(-c2ccccc2)c1=O,> 100 µM,
OC[C@H]1CCCC1O (some centres not stated),> 100 µM,
Cc1cc(C(=O)Nc2ncc(Cc3cccc(C(F)(F)F)c3)s2)c2ccccc2n1,> 100 µM,3.46 µM
Cc1ccc(C2=C(c3ccccc3)C(Br)(c3ccc(C)cc3)C(c3ccccc3)=C2c2ccc(C)cc2)cc1,> 100 µM,
N#CCN1C(=O)c2cccc3cc([N+](=O)[O-])cc(c23)C1=O,> 100 µM,
O=C1OC(C(O)CO)C(=O)C1=O (configuration not stated),5170 µM,2350 µM
C=C1C(=O)O[C@H]2[C@H]1CC/C(COC(=O)C(=O)c1cn(Cc3ccccc3)c3ccccc13)=C\CC[C@@]1(C)O[C@@H]21,3.84 µM,1.92 µM
Clc1nc(Cl)c(Cl)c(-c2ccccc2)n1,31.1 µM,
CC1CC[C@]2(C(=O)O)CCC3(C)C(=CC(=O)C4[C@@]5(C)CCC(=O)C(C)(C)C5CC[C@]43C)[C@@H]2[C@H]1C (some centres not stated),> 100 µM,
COC(C(O)CO)C(O)C(O)C(=O)NNc1ccccc1 (configuration not stated),> 100 µM,
CC(C)C(Nc1c2ccccc2nc2ccccc12)C(=O)O (configuration not stated),> 100 µM,
COc1ccccc1CCc1cc(OC)c(OC)c(OC)c1,> 100 µM,
COc1cc2c(cc1OC)C(CC(=O)NN=C(C)C)NCC2 (configuration not stated),> 100 µM,

SMILES,TGI,GI50
COC(=O)/C(=N\Nc1nnc(C)n1N)C(C#N)c1ccc(Cl)cc1 (configuration not stated),> 100 µM,
Cc1cccc(NC(=O)C(=O)C(C(=O)c2ccc3ccccc3c2)C2OC(=O)c3ccccc32)c1C (configuration not stated),57.7 µM,
CS/C(N)=N\NC(=O)CCC(=O)Nc1ccccc1C(F)(F)F,> 100 µM,
CC(C)(C)c1ccc2c(c1)S(=O)(=O)Nc1ccccc1NS(=O)(=O)c1cc(C(C)(C)C)ccc1OCCOCCOCCO2,> 100 µM,
CC(=O)[O-].CCN(CC)c1ccc(C=NCCN=Cc2ccc(N(CC)CC)cc2[O-])c([O-])c1.[Mn+3],80.3 µM,29.6 µM
NC(N)=N/N=C(\c1nc2ccc([N+](=O)[O-])cc2[nH]c1=O)C(O)c1ccc([N+](=O)[O-])cc1 (configuration not stated),> 100 µM,
COc1cc2nc3cc([N+](=O)[O-])ccc3c(NCCCNCCO)c2cc1OC,0.672 µM,0.225 µM
CCC[CH2][Sn]1([CH2]CCC)[O]CC(CN2CCCC2)[O]1 (configuration not stated),37.1 µM,21.1 µM
CC1(C)C(=O)N(CCCCCCN2C(=O)C(C)(C)c3ccccc32)c2ccccc21,> 100 µM,
NCCCCN(CCCN)/[N+]([O-])=N\O,> 100 µM,
CCOC(=O)c1c(C)n(Cc2ccc(Cl)cc2Cl)c2c1c(CN(C)C)c(O)c1[nH]cnc12,31.5 µM,17.1 µM
CCOc1ccccc1NC(=O)CC(C(=O)OC)C(=O)C(=O)OC (configuration not stated),> 100 µM,
C[C@@]12CC=C3c4nc(Nc5cccc(O)c5)sc4CC[C@]3(C)[C@H]1CC[C@]1(C)C(=O)CC[C@@H]21,6.04 µM,2.23 µM
CN1C(=O)c2cccc3cc([N+](=O)[O-])cc(c23)C1=O,> 10 µM,
COC(=O)C1=C(C)N(NC(=O)OC(C)(C)C)C(=O)C1=P(c1ccccc1)(c1ccccc1)c1ccccc1,> 100 µM,
O=C1OC(c2ccccc2)=N/C1=C\c1cccc2ccccc12,> 100 µM,
Cc1cccc(NC(=O)/C(=N\NC(C)(C)C)C2NC(=S)NC2=O)c1C (configuration not stated),> 100 µM,
C[C@@H]1CC(=O)C2CCCC1C2=O (some centres not stated),> 100 µM,
c1ccc(CNn2nnc3ccccc32)cc1,> 100 µM,
CN1c2ccc(Cl)cc2C(=O)NC1c1ccc([N+](=O)[O-])s1 (configuration not stated),31.5 µM,
Oc1cccnc1CN1CCCCC1,> 100 µM,
